# Where two headings read alike, the source gives them in different places.
# How the values were obtained:
# Assay in all cases: Herbicidal activity for paddy test
# Assay type in all cases: in vivo
# ECHOR = settings: for pest or weed control at 2 g/ha: 0.002 kg/ha; for pest or weed control at 8 g/ha: 0.008 kg/ha; for pest or weed control at 31 g/ha: 0.031 kg/ha; for pest or weed control at 125 g/ha: 0.125 kg/ha; for pest or weed control at 500 g/ha: 0.500 kg/ha
# Source text: (§1) The sterilized sandy loam soil is filled in test pot having a surface area of 348 cm^2 for upland test conditions or 115 cm^2 for paddy test species were planted in furrows.
# (§2) The herbicidal activity data were taken visually by percent control, wherein 0 signifies no herbicidal effect and 100 signifies complete kill.
# MOOVA = settings: for pest or weed control at 2 g/ha: 0.002 kg/ha; for pest or weed control at 8 g/ha: 0.008 kg/ha; for pest or weed control at 31 g/ha: 0.031 kg/ha; for pest or weed control at 125 g/ha: 0.125 kg/ha; for pest or weed control at 500 g/ha: 0.500 kg/ha
# Source text: as §1, §2
# ORYSA = settings: for plant injury at 2 g/ha: 0.002 kg/ha; for plant injury at 8 g/ha: 0.008 kg/ha; for plant injury at 31 g/ha: 0.031 kg/ha; for plant injury at 125 g/ha: 0.125 kg/ha; for plant injury at 500 g/ha: 0.500 kg/ha
# Source text: as §1, §2
# SAGPY = settings: for pest or weed control at 2 g/ha: 0.002 kg/ha; for pest or weed control at 8 g/ha: 0.008 kg/ha; for pest or weed control at 31 g/ha: 0.031 kg/ha; for pest or weed control at 125 g/ha: 0.125 kg/ha; for pest or weed control at 500 g/ha: 0.500 kg/ha
# Source text: as §1, §2
# SCPJU = settings: for pest or weed control at 2 g/ha: 0.002 kg/ha; for pest or weed control at 8 g/ha: 0.008 kg/ha; for pest or weed control at 31 g/ha: 0.031 kg/ha; for pest or weed control at 125 g/ha: 0.125 kg/ha; for pest or weed control at 500 g/ha: 0.500 kg/ha
# Source text: as §1, §2
# [1] = 3 Leaf, read-out: Herbicidal activity, ORYSA (3 Leaf)
# [2] = seed, read-out: Herbicidal activity, ORYSA (seed)
smiles,measurement,setting,value
C=CCON=C(CCC)C1=C(O)CC(c2c(C)c(C)c3c(c2C)CC(C)(CC)C3)CC1=O (stereo not drawn) [Compound 18],pest or weed control at 2 g/ha,ECHOR,0%
same,pest or weed control at 8 g/ha,ECHOR,30%
same,pest or weed control at 31 g/ha,ECHOR,70%
same,pest or weed control at 125 g/ha,ECHOR,100%
same,pest or weed control at 500 g/ha,ECHOR,100%
same,pest or weed control at 2 g/ha,MOOVA,0%
same,pest or weed control at 8 g/ha,MOOVA,0%
same,pest or weed control at 31 g/ha,MOOVA,0%
same,pest or weed control at 125 g/ha,MOOVA,0%
same,pest or weed control at 500 g/ha,MOOVA,0%
same,plant injury at 2 g/ha,ORYSA; [1],0%
same,plant injury at 8 g/ha,ORYSA; [1],0%
same,plant injury at 31 g/ha,ORYSA; [1],0%
same,plant injury at 125 g/ha,ORYSA; [1],0%
same,plant injury at 500 g/ha,ORYSA; [1],0%
same,plant injury at 2 g/ha,ORYSA; [2],0%
same,plant injury at 8 g/ha,ORYSA; [2],0%
same,plant injury at 31 g/ha,ORYSA; [2],0%
same,plant injury at 125 g/ha,ORYSA; [2],30%
same,plant injury at 500 g/ha,ORYSA; [2],100%
same,pest or weed control at 2 g/ha,SAGPY,0%
same,pest or weed control at 8 g/ha,SAGPY,0%
same,pest or weed control at 31 g/ha,SAGPY,0%
same,pest or weed control at 125 g/ha,SAGPY,0%
same,pest or weed control at 500 g/ha,SAGPY,0%
same,pest or weed control at 2 g/ha,SCPJU,0%
same,pest or weed control at 8 g/ha,SCPJU,0%
same,pest or weed control at 31 g/ha,SCPJU,0%
same,pest or weed control at 125 g/ha,SCPJU,0%
same,pest or weed control at 500 g/ha,SCPJU,0%
C=CCON=C(CC)C1=C(O)CC(c2c(C)c3c(c(C)c2Cl)CC(C)(C)C3)CC1=O (stereo not drawn) [Compound 23],pest or weed control at 2 g/ha,ECHOR,0%
same,pest or weed control at 8 g/ha,ECHOR,40%
same,pest or weed control at 31 g/ha,ECHOR,100%
same,pest or weed control at 125 g/ha,ECHOR,100%
same,pest or weed control at 500 g/ha,ECHOR,100%
same,pest or weed control at 2 g/ha,MOOVA,0%
same,pest or weed control at 8 g/ha,MOOVA,0%
same,pest or weed control at 31 g/ha,MOOVA,0%
same,pest or weed control at 125 g/ha,MOOVA,0%
same,pest or weed control at 500 g/ha,MOOVA,0%
same,plant injury at 2 g/ha,ORYSA; [1],0%
same,plant injury at 8 g/ha,ORYSA; [1],0%
same,plant injury at 31 g/ha,ORYSA; [1],0%
same,plant injury at 125 g/ha,ORYSA; [1],0%
same,plant injury at 500 g/ha,ORYSA; [1],60%
same,plant injury at 2 g/ha,ORYSA; [2],0%
same,plant injury at 8 g/ha,ORYSA; [2],10%
same,plant injury at 31 g/ha,ORYSA; [2],100%
same,plant injury at 125 g/ha,ORYSA; [2],100%
same,plant injury at 500 g/ha,ORYSA; [2],100%
same,pest or weed control at 2 g/ha,SAGPY,0%
same,pest or weed control at 8 g/ha,SAGPY,0%
same,pest or weed control at 31 g/ha,SAGPY,0%
same,pest or weed control at 125 g/ha,SAGPY,0%
same,pest or weed control at 500 g/ha,SAGPY,0%
same,pest or weed control at 2 g/ha,SCPJU,0%
same,pest or weed control at 8 g/ha,SCPJU,0%
same,pest or weed control at 31 g/ha,SCPJU,0%
same,pest or weed control at 125 g/ha,SCPJU,0%
same,pest or weed control at 500 g/ha,SCPJU,0%
CCCC(=NOC)C1=C(O)CC(c2c(C)c3c(c(C)c2Cl)CC(C)(C)C3)CC1=O (stereo not drawn) [Compound 25],pest or weed control at 2 g/ha,ECHOR,0%
same,pest or weed control at 8 g/ha,ECHOR,0%
same,pest or weed control at 31 g/ha,ECHOR,100%
same,pest or weed control at 125 g/ha,ECHOR,100%
same,pest or weed control at 500 g/ha,ECHOR,100%
same,pest or weed control at 2 g/ha,MOOVA,0%
same,pest or weed control at 8 g/ha,MOOVA,0%
same,pest or weed control at 31 g/ha,MOOVA,0%
same,pest or weed control at 125 g/ha,MOOVA,0%
same,pest or weed control at 500 g/ha,MOOVA,0%
same,plant injury at 2 g/ha,ORYSA; [1],0%
same,plant injury at 8 g/ha,ORYSA; [1],0%
same,plant injury at 31 g/ha,ORYSA; [1],0%
same,plant injury at 125 g/ha,ORYSA; [1],0%
same,plant injury at 500 g/ha,ORYSA; [1],50%
same,plant injury at 2 g/ha,ORYSA; [2],0%
same,plant injury at 8 g/ha,ORYSA; [2],0%
same,plant injury at 31 g/ha,ORYSA; [2],60%
same,plant injury at 125 g/ha,ORYSA; [2],100%
same,plant injury at 500 g/ha,ORYSA; [2],100%
same,pest or weed control at 2 g/ha,SAGPY,0%
same,pest or weed control at 8 g/ha,SAGPY,0%
same,pest or weed control at 31 g/ha,SAGPY,0%
same,pest or weed control at 125 g/ha,SAGPY,0%
same,pest or weed control at 500 g/ha,SAGPY,0%
same,pest or weed control at 2 g/ha,SCPJU,0%
same,pest or weed control at 8 g/ha,SCPJU,0%
same,pest or weed control at 31 g/ha,SCPJU,0%
same,pest or weed control at 125 g/ha,SCPJU,0%
same,pest or weed control at 500 g/ha,SCPJU,0%
CCCC(=NOCC=CCl)C1=C(O)CC(c2c(C)c(C)c3c(c2C)CC(C)(CC)C3)CC1=O (stereo not drawn) [Compound 19],pest or weed control at 2 g/ha,ECHOR,0%
same,pest or weed control at 8 g/ha,ECHOR,50%
same,pest or weed control at 31 g/ha,ECHOR,80%
same,pest or weed control at 125 g/ha,ECHOR,100%
same,pest or weed control at 500 g/ha,ECHOR,100%
same,pest or weed control at 2 g/ha,MOOVA,0%
same,pest or weed control at 8 g/ha,MOOVA,0%
same,pest or weed control at 31 g/ha,MOOVA,0%
same,pest or weed control at 125 g/ha,MOOVA,0%
same,pest or weed control at 500 g/ha,MOOVA,0%
same,plant injury at 2 g/ha,ORYSA; [1],0%
same,plant injury at 8 g/ha,ORYSA; [1],0%
same,plant injury at 31 g/ha,ORYSA; [1],0%
same,plant injury at 125 g/ha,ORYSA; [1],0%
same,plant injury at 500 g/ha,ORYSA; [1],0%
same,plant injury at 2 g/ha,ORYSA; [2],0%
same,plant injury at 8 g/ha,ORYSA; [2],0%
same,plant injury at 31 g/ha,ORYSA; [2],0%
same,plant injury at 125 g/ha,ORYSA; [2],0%
same,plant injury at 500 g/ha,ORYSA; [2],30%
same,pest or weed control at 2 g/ha,SAGPY,0%
same,pest or weed control at 8 g/ha,SAGPY,0%
same,pest or weed control at 31 g/ha,SAGPY,0%
same,pest or weed control at 125 g/ha,SAGPY,0%
same,pest or weed control at 500 g/ha,SAGPY,0%
same,pest or weed control at 2 g/ha,SCPJU,0%
same,pest or weed control at 8 g/ha,SCPJU,0%
same,pest or weed control at 31 g/ha,SCPJU,0%
same,pest or weed control at 125 g/ha,SCPJU,0%
same,pest or weed control at 500 g/ha,SCPJU,0%
CCCC(=NOC)C1=C(O)CC(c2c(C)c(C)c3c(c2C)CC(C)(CC)C3)CC1=O (stereo not drawn) [Compound 16],pest or weed control at 2 g/ha,ECHOR,0%
same,pest or weed control at 8 g/ha,ECHOR,30%
same,pest or weed control at 31 g/ha,ECHOR,70%
same,pest or weed control at 125 g/ha,ECHOR,100%
same,pest or weed control at 500 g/ha,ECHOR,100%
same,pest or weed control at 2 g/ha,MOOVA,0%
same,pest or weed control at 8 g/ha,MOOVA,0%
same,pest or weed control at 31 g/ha,MOOVA,30%
same,pest or weed control at 125 g/ha,MOOVA,50%
same,pest or weed control at 500 g/ha,MOOVA,50%
same,plant injury at 2 g/ha,ORYSA; [1],0%
same,plant injury at 8 g/ha,ORYSA; [1],0%
same,plant injury at 31 g/ha,ORYSA; [1],0%
same,plant injury at 125 g/ha,ORYSA; [1],0%
same,plant injury at 500 g/ha,ORYSA; [1],30%
same,plant injury at 2 g/ha,ORYSA; [2],0%
same,plant injury at 8 g/ha,ORYSA; [2],0%
same,plant injury at 31 g/ha,ORYSA; [2],30%
same,plant injury at 125 g/ha,ORYSA; [2],100%
same,plant injury at 500 g/ha,ORYSA; [2],100%
same,pest or weed control at 2 g/ha,SAGPY,0%
same,pest or weed control at 8 g/ha,SAGPY,0%
same,pest or weed control at 31 g/ha,SAGPY,0%
same,pest or weed control at 125 g/ha,SAGPY,0%
same,pest or weed control at 500 g/ha,SAGPY,30%
same,pest or weed control at 2 g/ha,SCPJU,0%
same,pest or weed control at 8 g/ha,SCPJU,0%
same,pest or weed control at 31 g/ha,SCPJU,0%
same,pest or weed control at 125 g/ha,SCPJU,0%
same,pest or weed control at 500 g/ha,SCPJU,0%

# From patent US6096930A, “Herbicidal cyclohexane-1,3-dione derivatives and their preparation process” (Korea Research Institute of Chemical Technology, priority 1994, dated 2000)
